Tested on: C57bl/6J Mice
Assay: GPR120 C57bl6 Mouse IPGTT
Type: in vivo
Settings: 30.0 mg/kg, dosed 30 minutes prior to glucose (IP 1.5 g/kg)
Protocol: Male, C57bl/6J Mice were ordered in at 8 weeks of age from Jackson Labs. Individual mice weighed anywhere in the range of 25-30 grams on study day. The mice were fasted, with removal of food occurring at 7 am on the morning of the study. Animals were moved into the room at 10:00 am, to give them time to acclimate. Glucose (insulin syringes) was drawn up either the night before or the morning of the study. Glucose was dosed (IP) at 1.5 g/kg at 7.5 ml/kg (20% glucose straight TEKNOVA, 250 ml sterile bottle w/ catalogue number G0525). Test compounds were kept spinning and were only drawn into the syringes prior to study commencement. Animals were bled via tail snip to determine basal glucose levels prior to dosing of treatments. An Ascensia BREEZE Blood Glucose Monitoring System by Bayer (using unique 10-test disks) was used for determining glucose levels. The bleeds started at approximately 12:45 pm and dosing started, at 1-minute intervals, immediately after. All groups were dosed 30 minutes prior to glucose administration at a dose volume of 10 ml/kg (the dose volume was calculated separately for each individual animal). Thirty minutes after the first dose animals were bled again for a second baseline, or T=0, and immediately dosed with glucose via an i.p. injection. The exact dose volume for glucose was also calculated separately for each individual animal. […]

## Cc1c(CCC(=O)O)ccc(OCc2cccn2-c2ccc(Cl)cc2)c1C [Compound 1, 3-(4-{[1-(4-Chlorophenyl)-1H-pyrrol-2-yl]methoxy}-2,3-dimethylphenyl)propanoic acid]
  GPR120 C57bl6 Mouse IPGTT Results: not different

From patent publication US9045454B2, “Bicyclic pyrrole derivatives useful as agonists of GPR120” (Janssen Pharmaceutica NV, priority 2013, dated 2015)
